Assay: MALDI-TOF screening of Ni^2+ dependent hydrolysis in a combinatorial peptide library
Assay type: physicochemical
Conditions: CH3CO-Gly-Ala-Ser-X-His-Z-Lys-Phe-Leu-NH2 library, Ni^2+ 2 mM, pH 8.2, 10 mM Tris, score=24/tm
From the text: The sequence CH3CO-Gly-Ala-Ser/Thr-X-His-Z-Lys-Phe-Leu-NH2 was designed so that the fixed R1 and R2 sequences, CH3CO-Gly-Ala, and Lys-Phe-Leu-NH2, respectively, allowed optimal detection by MALDI-TOF mass spectrometry of substrates as well as expected products, Ser/Thr-X-His-Z-Lys-Phe-Leu-NH2 and assured separation between the clusters of signals for substrates and products in sublibraries (see below).
Residues in position X included all amino acids commonly present in proteins, except for Asp, Glu, and Cys. The former two contain carboxylates in their side chains, which may bind Ni^2+ in a way which would quench or slow down the hydrolysis reaction. The Cys residue may do the same, and also may engage in side reactions with Ni^2+ ions, including redox processes (for example see Bal and Kasprzak, Toxicol. Lett. 2002, 127, 55-62). Only the Cys residue was eliminated from position Z, for the same reasons.
The synthesis of the library was accomplished on a RINK amide resin (Novabiochem) on a 800 mg scale, according to a typical Fmoc protocol (Fields, Meth. Enzymol. Vol. 289). The resin-attached Leu-Phe-Lys peptide was synthesised first and coupled with the isokinetic mixture of 19 amino acids selected for position Z, and then with the H is residue. The resin carrying the library of pentapeptides was divided into Ser and Thr halves at this stage, and each of these halves into 17 portions, which were coupled with individual amino acids selected for position X. The coupling with Ser or Thr as appropriate, additions of Ala and Gly residues, acetylation of Gly, deprotection and cleavage from the resin were accomplished subsequently. Each of the resulting 34 samples of sublibraries randomized at position X was separated into two portions, one for the reaction at 37° C. and another for the reaction at 45° C. The hydrolysis reactions were accomplished in 10 mM Tris buffers at pH 8.2. The total concentrations of peptide mixtures and Ni^2+ ions were 1 mM and 2 mM, respectively. The pH for the reaction was chosen as selective for highly reactive sequences.
The detection of reaction products was accomplished with the use of a MALDI-TOF mass spectrometer (Micromass). The aliquots were removed from reaction mixtures and measured by MS at 2, 4, 6, and 8 hours of incubation. The progress of reaction was evaluated by visual detection in mass spectra of appearance of signals corresponding to expected products of hydrolysis, Ser/Thr-X-His-Z-Lys-Phe-Leu-NH2, at given measurement times, tm. […] Also the decrease of signals of substrates was controlled in these cases.
Residues X and Z were then sorted according to various molecular parameters, describing their physical properties (Carugo, In Silico Biol. 2003, 3, 0035). […] The Ser library provided a higher number of reactive peptides than the Thr library. Following the additivity of effects, the scores were also summed up in lines and columns of Table 1A-D, thereby creating final rankings for preferred substitutions in positions X and Z.

Substance | hydrolysis score from MALDI-TOF screening (37° C.) | hydrolysis score from MALDI-TOF screening (45° C.)
Ac-GASHHVKFL-NH2 [SHHV] | 6 (a score of 6 for detection at 4 hours) | 6 (a score of 6 for detection at 4 hours)
Ac-GASHHWKFL-NH2 [SHHW] | 6 (a score of 6 for detection at 4 hours) | 12 (a score of 12, if it was seen to be partially hydrolysed at 2 hours)
Ac-GASHHYKFL-NH2 [SHHY] | 3 (a score of 3 for detection at 8 hours) | 4 (a score of 4 for detection at 6 hours)
Ac-GASIHAKFL-NH2 [SIHA] | 0 (a score of 0 if no trace of the product of hydrolysis was seen after 8 hours of incubation) | 0 (a score of 0 if no trace of the product of hydrolysis was seen after 8 hours of incubation)
Ac-GASIHDKFL-NH2 [SIHD] | 0 (a score of 0 if no trace of the product of hydrolysis was seen after 8 hours of incubation) | 0 (a score of 0 if no trace of the product of hydrolysis was seen after 8 hours of incubation)
Ac-GASIHEKFL-NH2 [SIHE] | 0 (a score of 0 if no trace of the product of hydrolysis was seen after 8 hours of incubation) | 0 (a score of 0 if no trace of the product of hydrolysis was seen after 8 hours of incubation)
Ac-GASIHFKFL-NH2 [SIHF] | 0 (a score of 0 if no trace of the product of hydrolysis was seen after 8 hours of incubation) | 0 (a score of 0 if no trace of the product of hydrolysis was seen after 8 hours of incubation)
Ac-GASIHGKFL-NH2 [SIHG] | 0 (a score of 0 if no trace of the product of hydrolysis was seen after 8 hours of incubation) | 0 (a score of 0 if no trace of the product of hydrolysis was seen after 8 hours of incubation)
Ac-GASIHHKFL-NH2 [SIHH] | 3 (a score of 3 for detection at 8 hours) | 3 (a score of 3 for detection at 8 hours)
Ac-GASIHIKFL-NH2 [SIHI] | 3 (a score of 3 for detection at 8 hours) | 3 (a score of 3 for detection at 8 hours)
Ac-GASIHKKFL-NH2 [SIHK] | 3 (a score of 3 for detection at 8 hours) | 4 (a score of 4 for detection at 6 hours)
Ac-GASIHMKFL-NH2 [SIHM] | 0 (a score of 0 if no trace of the product of hydrolysis was seen after 8 hours of incubation) | 0 (a score of 0 if no trace of the product of hydrolysis was seen after 8 hours of incubation)
Ac-GASIHNKFL-NH2 [SIHN] | 0 (a score of 0 if no trace of the product of hydrolysis was seen after 8 hours of incubation) | 0 (a score of 0 if no trace of the product of hydrolysis was seen after 8 hours of incubation)
Ac-GASIHPKFL-NH2 [SIHP] | 0 (a score of 0 if no trace of the product of hydrolysis was seen after 8 hours of incubation) | 0 (a score of 0 if no trace of the product of hydrolysis was seen after 8 hours of incubation)
Ac-GASIHQKFL-NH2 [SIHQ] | 0 (a score of 0 if no trace of the product of hydrolysis was seen after 8 hours of incubation) | 0 (a score of 0 if no trace of the product of hydrolysis was seen after 8 hours of incubation)
Ac-GASIHRKFL-NH2 [SIHR] | 3 (a score of 3 for detection at 8 hours) | 3 (a score of 3 for detection at 8 hours)
Ac-GASIHSKFL-NH2 [SIHS] | 0 (a score of 0 if no trace of the product of hydrolysis was seen after 8 hours of incubation) | 0 (a score of 0 if no trace of the product of hydrolysis was seen after 8 hours of incubation)

Substance | hydrolysis score from MALDI-TOF screening (37° C.) | hydrolysis score from MALDI-TOF screening (45° C.)
Ac-GASIHTKFL-NH2 [SIHT] | 0 (a score of 0 if no trace of the product of hydrolysis was seen after 8 hours of incubation) | 0 (a score of 0 if no trace of the product of hydrolysis was seen after 8 hours of incubation)
Ac-GASIHVKFL-NH2 [SIHV] | 3 (a score of 3 for detection at 8 hours) | 3 (a score of 3 for detection at 8 hours)
Ac-GASIHWKFL-NH2 [SIHW] | 3 (a score of 3 for detection at 8 hours) | 3 (a score of 3 for detection at 8 hours)
Ac-GASIHYKFL-NH2 [SIHY] | 0 (a score of 0 if no trace of the product of hydrolysis was seen after 8 hours of incubation) | 0 (a score of 0 if no trace of the product of hydrolysis was seen after 8 hours of incubation)
Ac-GASKHAKFL-NH2 [SKHA] | 0 (a score of 0 if no trace of the product of hydrolysis was seen after 8 hours of incubation) | 0 (a score of 0 if no trace of the product of hydrolysis was seen after 8 hours of incubation)
Ac-GASKHDKFL-NH2 [SKHD] | 0 (a score of 0 if no trace of the product of hydrolysis was seen after 8 hours of incubation) | 0 (a score of 0 if no trace of the product of hydrolysis was seen after 8 hours of incubation)
Ac-GASKHEKFL-NH2 [SKHE] | 0 (a score of 0 if no trace of the product of hydrolysis was seen after 8 hours of incubation) | 3 (a score of 3 for detection at 8 hours)
Ac-GASKHFKFL-NH2 [SKHF] | 4 (a score of 4 for detection at 6 hours) | 4 (a score of 4 for detection at 6 hours)
Ac-GASKHGKFL-NH2 [SKHG] | 0 (a score of 0 if no trace of the product of hydrolysis was seen after 8 hours of incubation) | 0 (a score of 0 if no trace of the product of hydrolysis was seen after 8 hours of incubation)
Ac-GASKHHKFL-NH2 [SKHH] | 4 (a score of 4 for detection at 6 hours) | 3 (a score of 3 for detection at 8 hours)
Ac-GASKHIKFL-NH2 [SKHI] | 6 (a score of 6 for detection at 4 hours) | 12 (a score of 12, if it was seen to be partially hydrolysed at 2 hours)
Ac-GASKHKKFL-NH2 [SKHK] | 6 (a score of 6 for detection at 4 hours) | 12 (a score of 12, if it was seen to be partially hydrolysed at 2 hours)
Ac-GASKHMKFL-NH2 [SKHM] | 3 (a score of 3 for detection at 8 hours) | 4 (a score of 4 for detection at 6 hours)
Ac-GASKHNKFL-NH2 [SKHN] | 0 (a score of 0 if no trace of the product of hydrolysis was seen after 8 hours of incubation) | 0 (a score of 0 if no trace of the product of hydrolysis was seen after 8 hours of incubation)
Ac-GASKHPKFL-NH2 [SKHP] | 0 (a score of 0 if no trace of the product of hydrolysis was seen after 8 hours of incubation) | 0 (a score of 0 if no trace of the product of hydrolysis was seen after 8 hours of incubation)
Ac-GASKHQKFL-NH2 [SKHQ] | 0 (a score of 0 if no trace of the product of hydrolysis was seen after 8 hours of incubation) | 0 (a score of 0 if no trace of the product of hydrolysis was seen after 8 hours of incubation)
Ac-GASKHTKFL-NH2 [SKHT] | 0 (a score of 0 if no trace of the product of hydrolysis was seen after 8 hours of incubation) | 0 (a score of 0 if no trace of the product of hydrolysis was seen after 8 hours of incubation)

Reference: US8969516B2, “Method of hydrolysis of peptide bond” (priority 2006, dated 2015)
